{
  "source": "patent US10167279B2",
  "about": "(NOVARTIS AG, priority 2014, dated 2019)",
  "data": [
    {"molecular_target": "C-Raf FL (Homo sapiens (Human), UniProt P04049, Y340E/Y341E)", "sequence (P04049 whole entry Y340E/Y341E)": "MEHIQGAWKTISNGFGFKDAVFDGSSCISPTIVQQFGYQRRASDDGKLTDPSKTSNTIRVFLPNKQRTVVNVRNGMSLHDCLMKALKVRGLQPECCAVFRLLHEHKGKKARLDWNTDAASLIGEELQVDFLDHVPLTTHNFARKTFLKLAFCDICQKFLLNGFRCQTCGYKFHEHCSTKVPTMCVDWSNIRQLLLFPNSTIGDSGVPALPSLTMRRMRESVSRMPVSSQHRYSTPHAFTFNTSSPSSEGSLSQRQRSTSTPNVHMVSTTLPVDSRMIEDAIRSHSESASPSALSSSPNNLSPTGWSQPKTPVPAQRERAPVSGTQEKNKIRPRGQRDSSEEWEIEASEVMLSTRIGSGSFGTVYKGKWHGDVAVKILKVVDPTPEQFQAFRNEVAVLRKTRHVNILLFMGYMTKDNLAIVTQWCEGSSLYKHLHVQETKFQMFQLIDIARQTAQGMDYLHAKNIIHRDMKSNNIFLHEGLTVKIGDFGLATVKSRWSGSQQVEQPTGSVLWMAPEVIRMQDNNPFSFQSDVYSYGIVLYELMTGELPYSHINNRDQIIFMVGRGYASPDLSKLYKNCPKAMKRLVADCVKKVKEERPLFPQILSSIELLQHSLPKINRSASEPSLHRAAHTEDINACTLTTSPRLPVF", "sequence (P63104 whole entry partner)": "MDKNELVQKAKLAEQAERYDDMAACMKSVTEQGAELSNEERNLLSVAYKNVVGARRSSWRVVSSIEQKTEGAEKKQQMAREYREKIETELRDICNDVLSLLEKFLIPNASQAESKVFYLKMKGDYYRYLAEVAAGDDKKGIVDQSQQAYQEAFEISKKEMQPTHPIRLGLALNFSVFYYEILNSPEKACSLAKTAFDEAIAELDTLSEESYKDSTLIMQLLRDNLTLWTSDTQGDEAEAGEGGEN", "test": "In vitro Raf activity determination (Alpha Screen, phospho-MEK), C-Raf FL (full length, Y340E/Y341E)", "assay_type": "biochemical", "settings": "ATP 1 μM; 60 min pre-incubation; 1 hour reaction; column head does not say FL or TR", "source_text": "The activity of a compound according to the present invention can be assessed by well-known in vitro & in vivo methods. Raf inhibition data provided herein was obtained using the following procedures.\nSf9 cells co-expressing both proteins were lysed and subjected to immobilized nickel chromatography and eluted with Imidazole. A second column (StrepII binding column) was used and eluted with desthiobiotin. Protein Tags were removed using Prescission enzyme and the protein was further purified using a flowthrough step to remove tags.\nC-Raf TR refers to a truncated C-Raf protein, a Δ1-324 deletion mutant. C-Raf FL refers to the full-length C-Raf protein.\nFull length MEK1 with an inactivating K97R ATP binding site mutation is utilized as a RAF substrate. The MEK1 cDNA was subcloned with an N-terminal (his)6 tag into a vector for E. Coli expression. The MEK1 substrate was purified from E. Coli lysate by nickel affinity chromatography followed by anion exchange. The final MEK1 preparation was biotinylated (Pierce EZ-Link Sulfo-NHS-LC-Biotin) and concentrated.\nAssay protocol: Raf and biotinylated Mek (kinase dead) were combined at 2× final concentrations in assay buffer (50 mM Tris, pH 7.5, 15 mM MgCl2, 0.01% BSA and 1 mM DTT) and dispensed […] per well in assay plates (Greiner white 384 well assay plates #781207) containing […] of 40× of a Raf kinase inhibitor test compound diluted in 100% DMSO. The plate was incubated for 60 minutes at room temperature. […] The reactions were stopped and the phosphorylated product was measured using a rabbit anti-p-MEK (Cell Signaling, #9121) antibody and the Alpha Screen IgG (ProteinA) detection Kit (PerkinElmer #6760617R), by the addition of […] to the well of a mixture of the antibody (1:2000 dilution) and detection beads (1:2000 dilution of both beads) in Stop/bead buffer (25 mM EDTA, 50 mM Tris, pH 7.5, 0.01% Tween20). The additions were carried out under dark conditions to protect the detection beads from light. A lid was placed on top of the plate and incubated for 1 hour at room temperature, after which the luminescence was read on a PerkinElmer Envision instrument. The concentration of each compound for 50% inhibition (IC50) was calculated by non-linear regression using XL Fit data analysis software.", "units": {"IC50": "nM"}, "values": [
      {"molecule": "CCOc1ncc(-c2cc(NC(=O)c3ccnc(C(C)(C)C#N)c3)ccc2C)cc1C1(O)CCOC1", "note": "(centres unmarked) [Example 293, 2-(2-cyanopropan-2-yl)-N-(3-(6-ethoxy-5-(3-hydroxytetrahydro-furan-3-yl)pyridin-3-yl)-4-methylphenyl) isonicotinamide]", "IC50": 2},
      {"molecule": "Cc1ccc(NC(=O)c2cc(C(F)(F)F)ccn2)cc1-c1cc2c(c(C3CCOCC3)c1)OC(C)(C)C(=O)N2", "note": "[Example 199, N-(3-(2,2-dimethyl-3-oxo-8-(tetrahydro-2H-pyran-4-yl)-3,4-dihydro-2H-benzo[b][1,4]oxazin-6-yl)-4-methylphenyl)-4-(trifluoromethyl) picolinamide]", "IC50": 1},
      {"molecule": "COC1(c2cc(-c3cc(NC(=O)c4ccnc(C(F)(F)F)c4)ccc3C)cc(OCCO)n2)COC1", "note": "[Example 157, N-(3-(2-(2-hydroxyethoxy)-6-(3-methoxyoxetan-3-yl)pyridin-4-yl)-4-methylphenyl)-2-(trifluoromethyl)isonicotin-amide]", "IC50": 0.3},
      {"molecule": "Cc1ccc(NC(=O)c2ccnc(C(C)(F)F)c2)cc1-c1cc2c(c(C3CCOCC3)c1)OC(C)(C)C(=O)N2", "note": "[Example 197, 2-(1,1-difluoroethyl)-N-(3-(2,2-dimethyl-3-oxo-8-(tetrahydro-2H-pyran-4-yl)-3,4-dihydro-2H-benzo[b][1,4]oxazin-6-yl)-4-methylphenyl) isonicotinamide]", "IC50": 0.4},
      {"molecule": "Cc1ccc(NC(=O)c2cccc(C(F)(F)F)c2)cc1-c1cc(C2(O)COC2)cc(C2(F)COC2)c1", "note": "[Example 134, N-(3′-(3-fluorooxetan-3-yl)-5′-(3-hydroxyoxetan-3-yl)-6-methyl-[1,1′-biphenyl]-3-yl)-3-(trifluoromethyl)benzamide]", "IC50": 0.566},
      {"molecule": "Cc1ccc(NC(=O)c2cc(C(F)(F)F)ccn2)cc1-c1cc2c(c(C3CCOCC3)c1)NC(=O)C(C)(CO)O2", "note": "(single isomer, unassigned) [Example 193, N-(3-(2-(hydroxymethyl)-2-methyl-3-oxo-5-(tetrahydro-2H-pyran-4-yl)-3,4-dihydro-2H-benzo [b][1,4]oxazin-7-yl)-4-methylphenyl)-4-(trifluoromethyl) picolinamide carboxamide]", "IC50": 0.02},
      {"molecule": "Cc1ccc(NC(=O)c2cncc(C(F)(F)F)c2)cc1-c1cc(OCCO)nc(C2CCOCC2)c1", "note": "[Example 265, N-(3-(2-(2-hydroxyethoxy)-6-(tetrahydro-2H-pyran-4-yl)pyridin-4-yl)-4-methylphenyl)-5-(trifluoromethyl) nicotinamide]", "IC50": 0.1},
      {"molecule": "Cc1ccc(NC(=O)c2cnnc(C(F)(F)F)c2)cc1-c1cc(OCCO)nc(C2(CF)CCOCC2)c1", "note": "[Example 212, N-(3-(2-(4-(fluoromethyl)tetrahydro-2H-pyran-4-yl)-6-(2-hydroxyethoxy)pyridin-4-yl)-4-methylphenyl)-6-(trifluoromethyl) pyridazine-4-carboxamide]", "IC50": 0.08},
      {"molecule": "Cc1ccc(NC(=O)c2cc(C(F)(F)F)cnn2)cc1-c1cc2c(c(C3CCOCC3)c1)NC(=O)C(C)(CO)O2", "note": "(centres unmarked) [Example 195, N-(3-(2-(hydroxymethyl)-2-methyl-3-oxo-5-(tetrahydro-2H-pyran-4-yl)-3,4-dihydro-2H-benzo [b][1,4]oxazin-7-yl)-4-methylphenyl)-5-(trifluoromethyl) pyridazine-3-carboxamide]", "IC50": 0.03},
      {"molecule": "Cc1ccc(NC(=O)c2cc(C(F)(F)F)c(Cl)cn2)cc1-c1cc(OCCO)nc(C2CCOCC2)c1", "note": "[Example 266, 5-chloro-N-(3-(2-(2-hydroxyethoxy)-6-(tetrahydro-2H-pyran-4-yl)pyridin-4-yl)-4-methylphenyl)-4-(trifluoromethyl) picolinamide]", "IC50": 2},
      {"molecule": "Cc1ccc(NC(=O)c2ccnc(C(F)(F)F)c2)cc1-c1cc(C2(F)COC2)cc(OCCO)n1", "note": "[Example 47, N-(3-(4-(3-fluorooxetan-3-yl)-6-(2-hydroxyethoxy)pyridin-2-yl)-4-methylphenyl)-2-(trifluoromethyl)isonicotin-amide]", "IC50": 4.35}
    ]}
  ]
}
